SMILES strings stand for the structures.

Common to all, as to type: cell-based
One assay has as its system BRK-BaF3 cells. In words: Cell antiproliferative activity assay (CCK-8), BRK-BaF3. The note with it: 72 h, CCK-8, 3 days incubation. In a few lines:
(§1)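 Growth inhibition over 3 days, with compound serially diluted 3-fold from a 10 µM top concentration. Cells seeded at 100,000 cells/mL; WT-BaF3 medium carried 10% WEHI supernatant as the IL-3 source. Viability read by CCK-8 OD450 after 2-4 h; IC50 from blank-subtracted curve fit.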

Another assay concerns WT-BaF3 cells. The experiment in a line: Cell antiproliferative activity assay (CCK-8), WT-BaF3 (broad-spectrum cytotoxicity). The note with it: 72 h; WT-BaF3 cells (IL-3 supplemented), CCK-8, 3 days incubation. In a few lines: as §1
In a further assay the test system is T47D cells. In words: Cell antiproliferative activity assay (CCK-8), T47D. The note with it: Homo sapiens, 72 h, breast cancer cell line T47D, incubation for 3 days. Here is the method: BRK-BaF3, WT-BaF3, WEHI cell line, and breast cancer cell line T47D were cultured using RPMI 1640 Basal medium or DMEM (Dulbecco's Modified Eagle Medium) (Shanghai Peiyuan Biotechnology, L220KJ), supplemented with 10% FBS (Gibco, REF 10099-141C) and 1% P/S (Shanghai Peiyuan Biotechnology, S110JV), in an incubator (Thermo 3020) at 37°C with 5% CO2. Cell viability was above 95%. Cells were passaged at a 3:1 ratio every 3-4 days. For WT-BaF3 cells, WEHI cells were first cultured, and their culture supernatant was filtered through a 0.22 µm filter. This supernatant was added at 10% to the regular culture medium to supplement IL-3 required for WT-BaF3 cell proliferation, which served as the culture medium for WT-BaF3. For testing, cells were first collected and counted, then prepared into a cell suspension at 100,000 cells/mL and plated at 100 µL per well. Drug concentrations started from 10 µM and were serially diluted 3:1. After incubation for 3 days, 20 µL of CCK-8 detection reagent (Targetmol C005) was added to each well. After incubation for 2-4 hours, OD450 was measured using a microplate reader (Varioskan LUX, Thermo Scientific). After subtracting the blank background, the curve was fitted and the IC50 was calculated using XLfit software.
In addition, the following table exemplarily lists the IC50 values of some compounds of the present invention against T47D cells.

What is called IC50 is the point on the concentration scale where inhibition reaches its midpoint. Low values mean greater potency, high ones weaker potency. As for `Cc1ccncc1-c1cc(C(C)C)c2nc(Nc3cnn(CCO)c3C)ncc2c1` [I-59], the IC50 was not above 20 nM in the assay on BRK-BaF3 cells, more than 2500 nM in the assay on WT-BaF3 cells and not above 500 nM with T47D cells.
The like results for `Cc1ccnnc1-c1cc(C2CC2)c2nc(Nc3cn(CCO)nc3C)ncc2c1` [I-119] were, in that order, not above 20 nM, 500 to 2500 nM and 500 to 1000 nM.
In the same order, the values of `COc1ncncc1-c1cc(C(C)C)c2nc(Nc3cn(CCO)nc3C)ncc2c1` [I-125] are not above 20 nM, more than 2500 nM and 500 to 1000 nM.
`Cc1nn(CCO)cc1Nc1ncc2cc(-c3c(C)ncnc3C)cc(C3CC3)c2n1` [I-147]: the figures for the IC50 in the assay on BRK-BaF3 cells, in the assay with WT-BaF3 cells and with T47D cells were not above 20 nM, 500 to 2500 nM and 500 to 1000 nM, respectively.
In the same order, the values of `[2H]C([2H])([2H])n1cc(Nc2ncc3cc(-c4nccnc4C)cc(C(C)C)c3n2)c(C)n1` [III-103] are not above 20 nM, 100 to 500 nM and not above 500 nM.
With `Cc1nccnc1-c1cc(C(C)C)c2nc(Nc3ccc(P(C)(C)=O)cc3)ncc2c1` [II-11], the IC50 in the assay on BRK-BaF3 cells is not above 20 nM; in the assay with WT-BaF3 cells it was 500 to 2500 nM; in the assay on T47D cells, not above 500 nM.
On to `Cc1ncnc(C)c1-c1cc(C(C)C)c2nc(Nc3cnn(CCO)c3)ncc2c1` [I-140], for which the IC50 is not above 20 nM in the assay on BRK-BaF3 cells, 500 to 2500 nM in the assay with WT-BaF3 cells and 500 to 1000 nM in the assay with T47D cells.
In the same order, the values of `CCP(=O)(CC)c1ccc(Nc2ncc3cc(-c4nccnc4C)cc(C4CC4)c3n2)cc1OC` [II-74] are not above 20 nM, 500 to 2500 nM and not above 500 nM.
On to `Cc1nn(C)cc1Nc1ncc2cc(-c3c[nH]nc3C)cc(C(C)C)c2n1` [III-88], for which the IC50 with BRK-BaF3 cells was not above 20 nM; with WT-BaF3 cells, 500 to 2500 nM; in the assay on T47D cells, 500 to 1000 nM.
The like results for `Cc1nn(CC(C)(C)O)cc1Nc1ncc2cc(-c3cccnc3C)cc(C(C)C)c2n1` [I-57] were, in that order, not above 20 nM, 100 to 500 nM and 500 to 1000 nM.
On to `COc1cc(Nc2ncc3cc(-c4cnccc4C)cc(C4CC4)c3n2)ccc1P(C)(C)=O` [II-66], for which, in the assay with T47D cells, the IC50 was not above 500 nM.
With `Cc1ncnc(C)c1-c1cc(C(C)C)c2nc(Nc3ccc(P(C)(C)=O)nc3)ncc2c1` [II-42], the IC50 was 20 to 100 nM in the assay on BRK-BaF3 cells and more than 2500 nM in the assay with WT-BaF3 cells.
As for `COc1cccnc1-c1cc(C(C)C)c2nc(Nc3cn(CCO)nc3C)ncc2c1` [I-4], the figures for the half-maximal inhibitory concentration (IC50) in the assay on BRK-BaF3 cells and in the assay with WT-BaF3 cells were not above 20 nM and more than 2500 nM, respectively.
In the same order, the values of `Cc1ccnnc1-c1cc(C(F)(F)F)c2nc(Nc3cn(CCO)nc3C)ncc2c1` [I-122] are not above 20 nM and 500 to 2500 nM.
In the same order, the values of `Cc1nn(CCO)cc1Nc1ncc2cc(-c3ncnc(C)c3Br)cc(C(C)C)c2n1` [I-139] are not above 20 nM and 500 to 2500 nM.
For `Cc1ccnc(C)c1-c1cc(C(F)(F)F)c2nc(Nc3cn(CCO)nc3C)ncc2c1` [I-77], the 50% inhibitory concentration (IC50) in the assay on BRK-BaF3 cells was not above 20 nM; in the assay with WT-BaF3 cells, 500 to 2500 nM.
For `COc1cc(Nc2ncc3cc(-c4cccnc4)cc(C4CC4)c3n2)ccc1P(C)(C)=O` [II-65], the IC50 in the assay on T47D cells is not above 500 nM.
Consider `Cc1ncnc(C)c1-c1cc(C(F)(F)F)c2nc(Nc3cnn(CCO)c3)ncc2c1` [I-149], for which the figures for the IC50 in the assay on BRK-BaF3 cells and in the assay on WT-BaF3 cells were 20 to 100 nM and more than 2500 nM, respectively.
The like results for `Cc1cnn(C)c1-c1cc(C(C)C)c2nc(Nc3cn(CCO)nc3C)ncc2c1` [I-191] were, in that order, not above 20 nM and 500 to 2500 nM.
With `COCCN(C)CCn1cc(Nc2ncc3cc(-c4nccnc4C)cc(C(C)C)c3n2)c(C)n1` [III-110], the 50% inhibitory concentration (IC50) was not above 20 nM in the assay on BRK-BaF3 cells and more than 2500 nM in the assay with WT-BaF3 cells.
Turning to `Cc1nn(C)cc1Nc1ncc2cc(-c3c(C#N)cnn3C)cc(C(C)C)c2n1` [III-86], the IC50 was not above 20 nM with BRK-BaF3 cells and more than 2500 nM with WT-BaF3 cells.
In the same order, the values of `Cc1nccnc1-c1cc(C2CC2)c2nc(Nc3ccc(P(C)(C)=O)cc3)ncc2c1` [II-30] are not above 20 nM and 500 to 2500 nM.
`Cc1ncnc(C)c1-c1cc(C(C)C)c2nc(Nc3ccc(P(C)(C)=O)c(C)c3F)ncc2c1` [II-56]: the IC50 with BRK-BaF3 cells was not above 20 nM; with WT-BaF3 cells it was more than 2500 nM.

For the origin of these results see patent EP4803513A1, “SUBSTITUTED QUINAZOLINE COMPOUND, PREPARATION METHOD THEREFOR, PHARMACEUTICAL COMBINATION THEREOF, AND USE THEREOF” (Hongyun Biotech Co., Ltd., priority 2023, dated 2025).
